melting point: > 300 °C
Compound: Cc1c(C#N)c([O-])nc(-c2ccccc2)c1/N=N/c1ccc([N+](=O)[O-])cc1.[K+]
